Consider three compounds from patent US20180071281A1, “TREATING CHRONIC RHINOSINUSITIS” (Gerbe Labs Inc., priority 2016, published 2018).

For data set [1] the following is noted: cited from earlier work; for systemic absorption: used topically.
For data set [2], the system named is gram negative and gram positive organisms. The settings on record: cited from earlier work.
The test system of data set [3] is S. aureus. Nature of the data set: Culture from Patient 7, sensitivity of bacteria. The format is cell-based. The settings on record: Patient 7 culture. From the text:
The patient underwent the standard workup for CRS, sleep disorder, and nasal obstruction, plus our diagnostic skin test and sinus CT scan.

Data set [4] deals with chronic rhinosinusitis. Nature of the data set: Case studies: patients with chronic rhinosinusitis treated with nebulized formulation. The format is in vivo, human. The settings on record: particularly in combination with the compositions and formulations; vancomycin in cases where MRSA is present. From the text:
In all of the following studies, the skin testing of Example 1 was used to identify the inhalant antigen or antigens responsible for triggering systemic inflammatory symptoms and the localized inflammatory sinus symptoms. The chronic rhinosinusitis of the patients was all successfully treated. Moreover, the patients also experienced resolution of systemic inflammatory symptoms.
Each of the patients avoided additional exposure to the fungal spores that were identified by the skin test. The patients ostia was dilated, and the formulation was administered with a nebulizer. Additionally, systemic anti-fungal medication directed toward the specific fungi was administered for 4-6 weeks, followed by intermittent nebulization with mometasone and 2% mupirocin powder, which has both anti-fungal and anti-bacterial properties. These treatments were administered every other day to every third day for several months with C-reactive protein (CRP} levels checked every 4-6 weeks to monitor change.
Patient 1 is a retired nurse who presented with chronic fatigue, chronic headaches, facial pain, and a sleep disorder characterized by Rapid Eye Movement (REM) sleep deprivation. The patient was a two pack/day smoker. […] The patient was treated with a formulation of 125 mg tobramycin, […]

Each structure is given as a SMILES string.

For the compound `C[C@@H]1C[C@H]2[C@@H]3CCC4=CC(=O)C=C[C@]4(C)[C@@]3(Cl)[C@@H](O)C[C@]2(C)[C@@]1(OC(=O)c1ccco1)C(=O)CCl` [Mometasone furoate], in data set [1] (topical, nasal cavity and sinuses, approved for children under the age of 3), the safety result was “very safe”. Moreover, the systemic absorption result in data set [1] is given as “very little systemic absorption”.
As for `NC[C@H]1O[C@H](O[C@H]2[C@H](O)[C@@H](O[C@H]3O[C@H](CO)[C@@H](O)[C@H](N)[C@H]3O)[C@H](N)C[C@@H]2N)[C@H](N)C[C@@H]1O` [tobramycin], the “activity against gram negative and gram positive organisms” value in data set [2] was “excellent activity”. For the same compound, the “sensitivity of cultured S. aureus” value in data set [3] is “sensitive”. For the same compound, the oral absorption result in data set [1] (orally) was “very, very poorly absorbed”. Further, the systemic absorption result in data set [1] is on record as “not absorbed systemically”. Besides, in data set [4], the “effectiveness of the antibiotic” value is on record as “highly effective”.
For the compound `CN[C@H](CC(C)C)C(=O)N[C@H]1C(=O)N[C@@H](CC(N)=O)C(=O)N[C@H]2C(=O)N[C@H]3C(=O)N[C@H](C(=O)N[C@H](C(=O)O)c4cc(O)cc(O)c4-c4cc3ccc4O)[C@H](O)c3ccc(c(Cl)c3)Oc3cc2cc(c3O[C@@H]2O[C@H](CO)[C@@H](O)[C@H](O)[C@H]2O[C@H]2C[C@](C)(N)[C@H](O)[C@H](C)O2)Oc2ccc(cc2Cl)[C@H]1O` [vancomycin], in data set [4], the “effectiveness of the antibiotic” value is “highly effective”.
